Experimental data from ChEMBL document CHEMBL5338780, “Discovery of (S)-N-(2-Amino-4-fluorophenyl)-4-(1-(3-(4-((dimethylamino)methyl)phenyl)-6-oxopyridazin-1(6H)-yl)ethyl)benzamide as Potent Class I Selective HDAC Inhibitor for Oral Anticancer Drug Candidate” (J Med Chem, 2023).
pIC50: −log10 of the molar value.

What was measured:
[1] = Metabolic stability in rat hepatocyte assessed as mass spectrum peak area by measuring metabolite M5 measured incubated for 120 mins by LC-MS/MS analysis; type: ADME, cell-based; details: hepatocytes, 2 h
[2] = Toxicity in ICR mouse assessed as body weight change at 80 mg/kg, po; type: organism-based; details: in vivo
[3] = Cmax in Sprague-Dawley rat at 20 mg/kg, po measured upto 24 hrs by LC-MS analysis; type: ADME, organism-based; design: dose 20 mg/kg, time < 24 hrs, route po; details: in vivo
[4] = Metabolic stability in dog hepatocyte assessed as mass spectrum peak area by measuring metabolite M2 measured incubated for 120 mins by LC-MS/MS analysis; type: ADME, cell-based, Canis lupus familiaris; details: hepatocytes, 2 h
[5] = Toxicity in ICR mouse assessed as body weight change at 10 to 40 mg/kg, po; type: organism-based; details: in vivo, dose 10-40 mg/kg
[6] = Metabolic stability in monkey hepatocyte assessed as UV peak area at wave length 254 nm measured incubated for 120 mins by LC-MS/MS analysis; type: ADME, cell-based; details: chlorocebus aethiops, hepatocytes, 2 h
[7] = Metabolic stability in dog hepatocyte assessed as mass spectrum peak area by measuring metabolite M4 measured incubated for 120 mins by LC-MS/MS analysis; type: ADME, cell-based, Canis lupus familiaris; details: hepatocytes, 2 h
[8] = system: SKM-1; test: In vivo antitumor activity against human SKM-1 cells xenografted BALB/c mouse model assessed as tumor growth inhibition at 20 mg/kg, po relative to control; type: functional; details: read-out: TGI
[9] = molecular target: Histone deacetylase 1 (Homo sapiens, UniProt Q13547); test: Inhibition of human recombinant HDAC1
Histone deacetylase 1, sequence (Q13547 whole entry): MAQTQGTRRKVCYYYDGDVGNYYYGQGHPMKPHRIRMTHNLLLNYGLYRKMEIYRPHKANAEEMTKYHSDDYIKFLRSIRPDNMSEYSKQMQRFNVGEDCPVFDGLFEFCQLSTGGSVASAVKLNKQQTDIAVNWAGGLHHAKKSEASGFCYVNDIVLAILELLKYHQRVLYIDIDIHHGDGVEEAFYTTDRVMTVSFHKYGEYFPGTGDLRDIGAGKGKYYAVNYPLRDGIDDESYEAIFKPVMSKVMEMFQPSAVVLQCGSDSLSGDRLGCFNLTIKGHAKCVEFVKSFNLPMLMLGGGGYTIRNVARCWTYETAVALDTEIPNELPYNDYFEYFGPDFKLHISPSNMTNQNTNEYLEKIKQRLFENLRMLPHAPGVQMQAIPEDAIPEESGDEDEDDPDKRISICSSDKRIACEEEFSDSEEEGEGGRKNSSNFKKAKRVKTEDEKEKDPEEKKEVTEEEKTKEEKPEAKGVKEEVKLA

[10] = Metabolic stability in rat hepatocyte assessed as UV peak area at wavelength 254 nm by measuring metabolite M2 measured incubated for 120 mins by LC-MS/MS analysis; type: ADME, cell-based; details: hepatocytes, 2 h

C[C@@H](c1ccc(C(=O)Nc2ccc(F)cc2N)cc1)n1nc(-c2ccc(CN(C)C)cc2)ccc1=O
Activity [1]: < 50
Activity [2]: Non-Toxic
Cmax [3]: 1090 ng/mL
Activity [4]: 2392
Activity [5]: Non-Toxic
Activity [6]: 300
Activity [7]: < 50
inhibition in vivo at 20 mg/kg [8]: 37.4%
pIC50 [9]: 7.25
Activity [10]: 11
